In ChEMBL document CHEMBL5705896 (ACS Chem Biol, 2013):
pEC50, pIC50: −log10 of the molar value. Active and inactive are the calls of the source. The calls are words filed in the database; no cut-off is given here.

Assays:
[1] = biological target: T1, Histone-lysine N-methyltransferase EZH2 (Homo sapiens, UniProt Q15910); assay: Inhibition of EZH2 methyltransferase activity (unknown origin) in PRC2 complex using 3H-SAM as substrate by Scintillation proximity assay
Target sequence in this assay (Q15910 whole entry): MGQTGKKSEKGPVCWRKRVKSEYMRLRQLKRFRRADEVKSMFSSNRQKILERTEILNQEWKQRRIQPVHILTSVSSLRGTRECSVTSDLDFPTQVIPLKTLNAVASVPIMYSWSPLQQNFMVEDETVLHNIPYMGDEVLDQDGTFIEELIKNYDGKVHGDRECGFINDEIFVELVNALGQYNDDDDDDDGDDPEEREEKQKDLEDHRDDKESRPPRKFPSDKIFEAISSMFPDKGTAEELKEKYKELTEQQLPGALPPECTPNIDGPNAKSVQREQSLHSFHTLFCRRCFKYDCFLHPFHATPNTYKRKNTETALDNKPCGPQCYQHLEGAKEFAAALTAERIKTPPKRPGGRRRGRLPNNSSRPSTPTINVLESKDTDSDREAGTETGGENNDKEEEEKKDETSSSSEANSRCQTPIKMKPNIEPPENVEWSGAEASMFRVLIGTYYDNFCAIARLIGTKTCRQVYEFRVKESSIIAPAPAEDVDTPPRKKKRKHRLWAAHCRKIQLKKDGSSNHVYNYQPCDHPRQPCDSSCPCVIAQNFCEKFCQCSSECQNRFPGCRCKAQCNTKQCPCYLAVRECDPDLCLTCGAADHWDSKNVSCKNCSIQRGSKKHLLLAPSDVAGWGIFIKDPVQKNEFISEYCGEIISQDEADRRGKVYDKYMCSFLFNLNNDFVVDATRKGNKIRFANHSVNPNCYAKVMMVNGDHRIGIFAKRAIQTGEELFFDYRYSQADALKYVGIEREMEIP

[2] = biological target: Histone-lysine N-methyltransferase EZH1 (Homo sapiens, UniProt Q92800); assay: Inhibition of EZH1 methyltransferase activity (unknown origin) in PRC2 complex using 3H-SAM as substrate by Scintillation proximity assay
[3] = biological target: Histone-lysine N-methyltransferase EZH2 (Homo sapiens, UniProt Q15910, Y641F); assay: Inhibition of EZH2 Y641F mutant (unknown origin) using HMT as substrate incubated for 60 mins by luminescence based analysis
[4] = Cytotoxicity against human MCF-10A cells assessed as reduction in cell viability by alamar blue assay; type: toxicity, cell-based
DB [5] = assay: Antiproliferative activity against human DB cells assessed as reduction in cell viability at 3000 nM measured after 8 days by cell proliferation assay; type: functional, cell-based; settings: time 8.0 day
DB [6] = assay: Downregulation of H3K27me3 level in human DB cells at 3000 nM measured after 3 days; type: functional, cell-based; settings: time 3.0 day
DB [7] = assay: Downregulation of EZH2 level in human DB cells at 3000 nM measured after 3 days; type: functional, cell-based; settings: time 3.0 day
[8] = biological target: Histone-lysine N-methyltransferase EZH2 (Mus musculus) (UniProt Q61188); assay: Binding affinity to EZH2 in mouse MEF cells expressing YPet fluorophore assessed as increase in fluorescence intensity in nucleus at 3.75 uM incubated for 15 mins; type: cell-based
[9] = biological target: T1, Histone-lysine N-methyltransferase EZH2; assay: Binding affinity to GFP-tagged EZH2 in HEK293 cells assessed as nuclear colocalization at 3.75 uM incubated for 15 mins by imaging based analysis; type: cell-based
Target sequence in this assay (Q15910 whole entry, looked up): as the sequence (Q15910 whole entry) above

Sequence of Histone-lysine N-methyltransferase EZH2 (Mus musculus) (Q61188 whole entry): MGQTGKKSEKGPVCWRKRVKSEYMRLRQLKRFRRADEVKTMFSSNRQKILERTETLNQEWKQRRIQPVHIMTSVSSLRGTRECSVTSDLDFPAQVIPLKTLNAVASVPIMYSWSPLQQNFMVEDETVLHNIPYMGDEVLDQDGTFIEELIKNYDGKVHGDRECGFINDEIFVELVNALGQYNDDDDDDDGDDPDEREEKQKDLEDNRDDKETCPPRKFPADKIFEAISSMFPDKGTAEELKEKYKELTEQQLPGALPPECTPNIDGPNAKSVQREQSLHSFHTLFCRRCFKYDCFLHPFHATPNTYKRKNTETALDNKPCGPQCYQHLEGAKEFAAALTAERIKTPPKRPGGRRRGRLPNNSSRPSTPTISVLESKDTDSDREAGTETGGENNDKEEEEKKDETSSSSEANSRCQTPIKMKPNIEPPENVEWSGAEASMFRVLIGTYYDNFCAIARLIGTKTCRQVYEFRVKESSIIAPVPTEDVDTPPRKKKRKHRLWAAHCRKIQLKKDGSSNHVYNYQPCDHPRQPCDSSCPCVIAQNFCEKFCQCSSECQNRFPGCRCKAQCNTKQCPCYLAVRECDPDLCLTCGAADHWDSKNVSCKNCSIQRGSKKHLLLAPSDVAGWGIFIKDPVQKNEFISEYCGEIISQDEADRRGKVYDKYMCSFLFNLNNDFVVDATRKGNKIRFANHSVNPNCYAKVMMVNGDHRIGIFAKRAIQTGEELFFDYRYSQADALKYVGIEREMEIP
Sequence of Histone-lysine N-methyltransferase EZH1 (Q92800 whole entry): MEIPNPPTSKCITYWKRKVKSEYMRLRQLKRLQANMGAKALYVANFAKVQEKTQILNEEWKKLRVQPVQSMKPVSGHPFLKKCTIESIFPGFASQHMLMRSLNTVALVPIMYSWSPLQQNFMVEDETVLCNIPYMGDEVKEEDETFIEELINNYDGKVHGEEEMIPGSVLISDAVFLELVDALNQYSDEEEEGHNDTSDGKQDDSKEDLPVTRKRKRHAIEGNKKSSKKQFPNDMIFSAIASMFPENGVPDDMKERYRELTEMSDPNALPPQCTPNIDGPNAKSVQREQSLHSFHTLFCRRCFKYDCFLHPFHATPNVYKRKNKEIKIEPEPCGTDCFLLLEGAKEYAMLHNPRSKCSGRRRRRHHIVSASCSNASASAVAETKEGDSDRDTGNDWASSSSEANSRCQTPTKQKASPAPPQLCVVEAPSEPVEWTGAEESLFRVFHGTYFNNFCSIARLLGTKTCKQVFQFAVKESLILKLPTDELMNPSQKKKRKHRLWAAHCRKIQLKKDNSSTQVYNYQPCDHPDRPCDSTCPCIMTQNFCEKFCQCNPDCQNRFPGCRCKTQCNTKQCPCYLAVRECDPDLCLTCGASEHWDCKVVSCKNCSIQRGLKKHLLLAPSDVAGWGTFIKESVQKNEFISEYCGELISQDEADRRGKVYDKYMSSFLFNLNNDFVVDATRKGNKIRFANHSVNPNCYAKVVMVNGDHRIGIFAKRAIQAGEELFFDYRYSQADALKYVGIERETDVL
Sequence of Histone-lysine N-methyltransferase EZH2 (Homo sapiens, UniProt Q15910, Y641F) (Q15910 whole entry Y641F): as the sequence (Q15910 whole entry) above, with Y641F counted along it

| Structure (SMILES) | pIC50 [1] | other results |
| --- | --- | --- |
| CCCc1cc(C)[nH]c(=O)c1CNC(=O)c1cc(-c2ccc(N3CCN(C(=O)CCOCCOCCOCCOCCOCCOCCOCCOCCOCCOCCOCCOCCNC(=O)CCCC[C@@H]4SC[C@@H]5NC(=O)N[C@@H]54)CC3)nc2)cc2c1cnn2C(C)C | 7.77 | – |
| CCCc1cc(C)[nH]c(=O)c1CNC(=O)c1cc(-c2ccc(N3CCN(CC)CC3)nc2)cc2c1cnn2C(C)C | > 8.00 | – |
| CCCc1cc(C)[nH]c(=O)c1CNC(=O)c1cc(-c2ccc(F)cn2)cc2c1cnn2C(C)C | 8.00 | – |
| CCCc1cc(C)[nH]c(=O)c1CNC(=O)c1cc(-c2ccc(F)cc2)cc2c1cnn2C(C)C | 7.20 | – |
| CCCc1cc(C)[nH]c(=O)c1CNC(=O)c1cc(-c2ccc(N3CCNCC3)nc2)cc2c1cnn2C(C)C | > 8.00 | – |
| CCCc1cc(C)[nH]c(=O)c1CNC(=O)c1cc(-c2ccc(N3CCN(C)CC3)nc2)cc2c1cnn2C(C)C | > 8.00 | – |
| CCCc1cc(C)n(C)c(=O)c1CN(C)C(=O)c1cc(-c2ccc(N3CCN(C(C)C)CC3)nc2)cc2c1cnn2C(C)C | 4.89 | pIC50 [2]: 4.21; pIC50 [3]: < 3.70; pEC50 [4]: 4.56; Activity (DB [5]): inactive; Activity (DB [6]): inactive; Activity (DB [7]): inactive |
| CCCc1cc(C)[nH]c(=O)c1CNC(=O)c1cc(-c2ccc(N3CCN(CCCCc4cn(CCN5C(=O)/C(=C/C=C/C=C6\N(CCC(=O)OCOC(C)=O)c7ccc(C(=O)OCOC(C)=O)cc7C6(C)C)C(=O)N(CC)C5=O)nn4)CC3)nc2)cc2c1cnn2C(C)C | 7.68 | Activity [8]: Active; Activity [9]: Active |
